# Patent US12295970B2, “Imidazoquinoline compounds and prodrugs thereof” (UNIVERSITY OF KANSAS, priority 2019, dated 2025)
# Key:
# [1] = system: canine peripheral blood mononuclear cells (cPBMCs); experiment: Cytokine production in canine PBMCs by ELISA (Example 2); assay type: cell-based; settings: ± SD, 20 μM, 29 hours, ELISA, triplicate
# Description: The imidazoquinolines were further screened for cytokine production in canine peripheral blood mononuclear cells (cPBMCs). […] TNFα and IL-12 were chosen as they are typically seen in a Th-1 cytokine response.
# Peripheral blood from a healthy canine donor was obtained with appropriate informed consent of the owner and under approved institutional guidelines. Blood (8 mL per tube) was drawn via sterile venipuncture into a BD Vacutainer cell preparation tube containing sodium heparin (BD Biosciences). PBMCs were isolated within one hour following procurement by density gradient centrifugation according to the manufacturer protocol and resuspended to 2.22×10^6 cells/mL in sterile RPMI 1640 medium with L-glutamine (Gibco) supplemented with 100 U/mL penicillin, 100 μg/mL streptomycin (Corning) and 10% (v/v) heat-inactivated Fetalgro (RMBIO). Corning 3917, 96-well tissue culture treated plates were seeded with the PBMC suspension (180 μL/well), 20 μL of the serially diluted TLR agonists were added in triplicate to yield the desired concentrations in a 1% (v/v) DMSO cell suspension. Cells were incubated at 37° C. in 5% CO2 for 9 hours (FIGS. 3A-3D) or 29 hours (Table 2) after which supernatants were removed and frozen at −80° C. Cytokine secretion levels were measured by ELISA (Duoset, R&D Systems) according to the manufacturer protocol. Samples and standards (n=3) were thawed and plated onto a Maxisorp flat-bottom, 384-well plate (Thermo Scientific) using a BioTek Precision XS pipetting system. Cytokine concentrations were determined by a hyperbolic or four-parameter logistic non-linear regression of the recombinant standards and subsequent interpolation using Graphpad Prism 7.0.
# canine PBMCs = experiment: In vitro cytokine secretion assay in canine PBMCs (Example 3); assay type: cell-based; settings: 15 hours, ELISA
# Excerpt: As a TLR7/8 agonist, R848 binds to endosomal TLR7 and 8 receptors located on antigen presenting cells (APCs). The activation of APCs produces pro-inflammatory cytokines including TNF-α, type I IFN and IL-12. These cytokines, together with stimulated APCs that take up tumor antigens, enhance the activation of anti-tumor Th-1 immune responses that involve both CD4^+ T helper cells and CD8^+ cytotoxic T cells.^16 To evaluate the Th-1 associated cytokine production in vitro, isolated canine PBMCs were treated with R848, formulated or unformulated R848-Toco, and the secretion of TNF-α and IL-12 were measured by ELISA as markers of generalized inflammatory response. Canines were chosen as a model over mice because of the greater genetic similarity to humans and more similar immune systems.^46 Peripheral blood from healthy canine donors of 7-10 years age (similar to the age of typical canines with cancer^14) was obtained with appropriate informed consent of the owner. Blood (8 mL per tube) was drawn via sterile venipuncture into a BD Vacutainer cell preparation tube containing sodium heparin (BD Biosciences). PBMCs were isolated within one hour following procurement by density gradient centrifugation according to the manufacturer protocol and resuspended to 3×10^6 cells/mL in sterile RPMI 1640 medium with L-glutamine (Gibco) supplemented with 100 IU/mL penicillin, 100 μg/mL streptomycin (Corning) and 10% (v/v) heat-inactivated Fetalgro (RMBIO). Corning 3917, 96-well tissue culture treated plates were seeded with the PBMC suspension (180 μL/well), 20 μL of the serially diluted R848 samples were added in triplicate and HA-Toco vehicle in duplicate to yield the desired concentrations in a 1% (v/v) DMSO cell suspension. […] Sample cytokine concentrations were determined by interpolation of a four-parameter logistic curve of the recombinant standards using GraphPad Prism 6. […] Cytokine secretion levels were measured by ELISA (Duoset, R&D Systems, Minneapolis, MN, USA) according to the manufacturer protocol.
# [2] = In vitro release kinetics (dialysis method); assay type: physicochemical; settings: PBS media, pH 7.4
# Description: Solutions (1 mL) of free R848 in DMSO, R848/HA-Toco in water, R848-Toco in DMSO, and R848-Toco/HA-Toco in water, with a concentration of 1 mg/mL on R848 basis were dialyzed using SnakeSkin® dialysis tubing (MWCO […]) against 30 mL of phosphate buffered saline release medium (PBS, 10 mM sodium phosphate, 137 mM NaCl, pH 7.4) with 0.5% (w/v) polysorbate 80 at 37° C. At predetermined time points, 1 mL aliquots of release medium were sampled and replaced with an equal volume of fresh medium. The samples were kept frozen (−20° C.) until HPLC analysis.
# Results: The in vitro release profiles of R848 and R848-Toco from the HA-Toco were studied using a dialysis method. […] The release of parent R848 formulated with HA-Toco was tested in PBS media, with free R848 dissolved in DMSO as a control. Similar release kinetics were observed whether R848 was formulated with HA-Toco or without ([…]), and in both conditions nearly 100% of the agonist was released over 24 h (FIG. 4A).
smiles,measurement,setting,value
"CCOCc1nc2c(N)nc3ccccc3c2n1CC(C)(C)O [Compound 2, resiquimod, reference compound]",Cytokine IFNg,[1],26 ± 7 pg/mL
same,Cytokine IL-2,[1],120 ± 12 pg/mL
same,Cytokine IL-6,[1],380 ± 80 pg/mL
same,Cytokine IL-10,[1],21 ± 2 pg/mL
same,Cytokine IL-12,[1],2800 ± 520 pg/mL
same,Cytokine TNFa,[1],190 ± 30 pg/mL
same,IL-12 levels,canine PBMCs,highest
same,secretion of TNF-α,canine PBMCs,strong secretion
same,agonist released over 24 h,[2],~100%
